Test system: IL-13 induced pSTAT6 in BEAS-2B human cell line
Assay: Inhibition of IL-13 induced pSTAT6 in BEAS
Format: cell-based
Settings: IL-13 induced pSTAT6, BEAS-2B cells, ELISA
Method in brief: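 BEAS-2B cells, cultured 48 h, were pretreated with compounds 30 min, then stimulated with IL-13 for 30 min. Phospho-STAT6 (Tyr641) in lysates quantified by sandwich ELISA; 11-point 5-fold series from 10 μM […], duplicate, IC50 fitted with QC (Z′≥0.35, Hill slope 0.5-5, S:B>2).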

Structure (SMILES)	IC50 [nM]
COc1cc2c(cc1-n1nc(NC(=O)OC[C@@H]3CN(C)CCO3)c3cnc(-c4cnn5cccnc45)cc31)OCCN2 [Example 65, (S)-(4-methylmorpholin-2-yl)methyl (1-(6-methoxy-3,4-dihydro-2H-benzo[b][1,4]oxazin-7-yl)-6-(pyrazolo[1,5-a]pyrimidin-3-yl)-1H-pyrazolo[4,3-c]pyridin-3-yl)carbamate]	5.01 to 50.1
COc1cc2c(cc1-n1nc(NC(=O)OCCN3CCCCC3)c3cnc(-c4cnn5cccnc45)cc31)OCCN2 [Example 66, 2-(piperidin-1-yl)ethyl (1-(6-methoxy-3,4-dihydro-2H-benzo[b][1,4]oxazin-7-yl)-6-(pyrazolo[1,5-a]pyrimidin-3-yl)-1H-pyrazolo[4,3-c]pyridin-3-yl)carbamate]	5.01 to 50.1
COc1cc2c(cc1-n1nc(NC(=O)OCCSC3CCOC3=O)c3cnc(-c4cnn5cccnc45)cc31)OCCN2 (stereo not shown) [Example 67, 2-((2-oxotetrahydrofuran-3-yl)thio)ethyl (1-(6-methoxy-3,4-dihydro-2H-benzo[b][1,4]oxazin-7-yl)-6-(pyrazolo[1,5-a]pyrimidin-3-yl)-1H-pyrazolo[4,3-c]pyridin-3-yl)carbamate]	5.01 to 50.1
COc1cc2c(cc1-n1nc(NC(=O)OCCNC3CCOC3=O)c3cnc(-c4cnn5cccnc45)cc31)OCCN2 (stereo not shown) [Example 68, 2-((2-oxotetrahydrofuran-3-yl)amino)ethyl (1-(6-methoxy-3,4-dihydro-2H-benzo[b][1,4]oxazin-7-yl)-6-(pyrazolo[1,5-a]pyrimidin-3-yl)-1H-pyrazolo[4,3-c]pyridin-3-yl)carbamate]	5.01 to 50.1
COc1cc2c(cc1-n1nc(NC(=O)OCCN(C)C)c3cnc(-c4cnn5cccnc45)cc31)CCCN2 [Example 69, 2-(dimethylamino)ethyl (1-(7-methoxy-1,2,3,4-tetrahydroquinolin-6-yl)-6-(pyrazolo[1,5-a]pyrimidin-3-yl)-1H-pyrazolo[4,3-c]pyridin-3-yl)carbamate]	5.01 to 50.1
COc1cc2c(cc1-n1nc(NC(=O)NCCCN3CCOCC3)c3cnc(-c4cnn5cccnc45)cc31)OCCN2 [Example 70, 1-(1-(6-methoxy-3,4-dihydro-2H-benzo[b][1,4]oxazin-7-yl)-6-(pyrazolo[1,5-a]pyrimidin-3-yl)-1H-pyrazolo[4,3-c]pyridin-3-yl)-3-(3-morpholinopropyl)urea]	5.01 to 50.1
COc1cc2c(cc1-n1nc(C)c3cnc(-c4cnn5cccnc45)cc31)C1(CC1)C(=O)N2 [Example 71, 6′-methoxy-5′-(3-methyl-6-(pyrazolo[1,5-a]pyrimidin-3-yl)-1H-pyrazolo[4,3-c]pyridin-1-yl)spiro[cyclopropane-1,3′-indolin]-2′-one]	5.01 to 50.1
COc1cc2[nH]c(=O)oc2cc1-n1nc(NCCN2CCOCC2)c2cnc(-c3cnn4cccnc34)cc21 [Example 72, 5-methoxy-6-(3-((2-morpholinoethyl)amino)-6-(pyrazolo[1,5-a]pyrimidin-3-yl)-1H-pyrazolo[4,3-c]pyridin-1-yl)benzo[d]oxazol-2(3H)-one]	50.1 to 501
COc1cc2c(cc1-n1nc(C(=O)NCCCN(C)C)c3cnc(-c4cnc5cccnn45)cc31)OCCN2 [Example 73, N-(3-(dimethylamino)propyl)-6-(imidazo[1,2-b]pyridazin-3-yl)-1-(6-methoxy-3,4-dihydro-2H-benzo[b][1,4]oxazin-7-yl)-1H-pyrazolo[4,3-c]pyridine-3-carboxamide]	5.01 to 50.1
COc1cc2c(cc1-n1nc(NCCN(C)C)c3cnc(Nc4ncc[nH]c4=O)cc31)OCCN2 [Example 74, 3-((3-((2-(dimethylamino)ethyl)amino)-1-(6-methoxy-3,4-dihydro-2H-benzo[b][1,4]oxazin-7-yl)-1H-pyrazolo[4,3-c]pyridin-6-yl)amino)pyrazin-2(1H)-one]	50.1 to 501
COc1cc2c(cc1-n1nc(C(=O)NCCCN(C)C)c3cnc(Nc4ncc[nH]c4=O)cc31)OCCN2 [Example 75, N-(3-(dimethylamino)propyl)-1-(6-methoxy-3,4-dihydro-2H-benzo[b][1,4]oxazin-7-yl)-6-((3-oxo-3,4-dihydropyrazin-2-yl)amino)-1H-pyrazolo[4,3-c]pyridine-3-carboxamide]	50.1 to 501
COc1cc2c(cc1-n1nc(C(=O)NCCCN3CCC(F)(F)CC3)c3cnc(Nc4ncc[nH]c4=O)cc31)OCCN2 [Example 76, N-(3-(4,4-difluoropiperidin-1-yl)propyl)-1-(6-methoxy-3,4-dihydro-2H-benzo[b][1,4]oxazin-7-yl)-6-((3-oxo-3,4-dihydropyrazin-2-yl)amino)-1H-pyrazolo[4,3-c]pyridine-3-carboxamide]	5.01 to 50.1
COc1cc2c(cc1-n1nc(C(=O)NCCN3CC(=O)OC(C)(C)C3)c3cnc(-c4cnn5cccnc45)cc31)OCCN2 [Example 77, N-(2-(2,2-dimethyl-6-oxomorpholino)ethyl)-1-(6-methoxy-3,4-dihydro-2H-benzo[b][1,4]oxazin-7-yl)-6-(pyrazolo[1,5-a]pyrimidin-3-yl)-1H-pyrazolo[4,3-c]pyridine-3-carboxamide]	5.01 to 50.1
CN(C)CCCNC(=O)c1nn(-c2cc3c(cc2OC(F)F)NCCO3)c2cc(-c3cnn4cccnc34)ncc12 [Example 78, 1-(6-(difluoromethoxy)-3,4-dihydro-2H-benzo[b][1,4]oxazin-7-yl)-N-(3-(dimethylamino)propyl)-6-(pyrazolo[1,5-a]pyrimidin-3-yl)-1H-pyrazolo[4,3-c]pyridine-3-carboxamide]	5.01 to 50.1
COc1cc2c(cc1-n1nc(C(=O)NCCN3CCC(C(N)=O)CC3)c3cnc(-c4cnn5cccnc45)cc31)OCCN2 [Example 79, N-(2-(4-carbamoylpiperidin-1-yl)ethyl)-1-(6-methoxy-3,4-dihydro-2H-benzo[b][1,4]oxazin-7-yl)-6-(pyrazolo[1,5-a]pyrimidin-3-yl)-1H-pyrazolo[4,3-c]pyridine-3-carboxamide]	50.1 to 501
COc1cc2c(cc1-n1nc(C(=O)NCCN3CC[C@@H](C(N)=O)C3)c3cnc(-c4cnn5cccnc45)cc31)OCCN2 [Example 80, (R)-N-(2-(3-carbamoylpyrrolidin-1-yl)ethyl)-1-(6-methoxy-3,4-dihydro-2H-benzo[b][1,4]oxazin-7-yl)-6-(pyrazolo[1,5-a]pyrimidin-3-yl)-1H-pyrazolo[4,3-c]pyridine-3-carboxamide]	50.1 to 501
COc1cc2c(cc1-n1nc(C(=O)NCCN3CC4(COC(=O)C4)C3)c3cnc(-c4cnn5cccnc45)cc31)OCCN2 [Example 81, 1-(6-methoxy-3,4-dihydro-2H-benzo[b][1,4]oxazin-7-yl)-N-(2-(7-oxo-6-oxa-2-azaspiro[3.4]octan-2-yl)ethyl)-6-(pyrazolo[1,5-a]pyrimidin-3-yl)-1H-pyrazolo[4,3-c]pyridine-3-carboxamide]	5.01 to 50.1
COc1cc2c(cc1-n1nc(C(=O)NCCN3CCC4(COC4)C3)c3cnc(-c4cnn5cccnc45)cc31)OCCN2 [Example 82, N-(2-(2-oxa-6-azaspiro[3.4]octan-6-yl)ethyl)-1-(6-methoxy-3,4-dihydro-2H-benzo[b][1,4]oxazin-7-yl)-6-(pyrazolo[1,5-a]pyrimidin-3-yl)-1H-pyrazolo[4,3-c]pyridine-3-carboxamide]	5.01 to 50.1
COc1cc2c(cc1-n1nc(C(=O)NCCN3CC(=O)OC(C)C3)c3cnc(-c4cnn5cccnc45)cc31)OCCN2 (stereo not shown) [Example 83, 1-(6-methoxy-3,4-dihydro-2H-benzo[b][1,4]oxazin-7-yl)-N-(2-(2-methyl-6-oxomorpholino)ethyl)-6-(pyrazolo[1,5-a]pyrimidin-3-yl)-1H-pyrazolo[4,3-c]pyridine-3-carboxamide]	50.1 to 501
COc1cc2c(cc1-n1nc(NC(=O)C3CCN(C)CC3)c3cnc(-c4cnn5cccnc45)cc31)OCCN2 [Example 84, N-(1-(6-methoxy-3,4-dihydro-2H-benzo[b][1,4]oxazin-7-yl)-6-(pyrazolo[1,5-a]pyrimidin-3-yl)-1H-pyrazolo[4,3-c]pyridin-3-yl)-1-methylpiperidine-4-carboxamide]	5.01 to 50.1
COc1cc2c(cc1-n1nc(C(=O)NCCN3CCC(C4(O)COC4)CC3)c3cnc(-c4cnn5cccnc45)cc31)OCCN2 [Example 85, N-(2-(4-(3-hydroxyoxetan-3-yl)piperidin-1-yl)ethyl)-1-(6-methoxy-3,4-dihydro-2H-benzo[b][1,4]oxazin-7-yl)-6-(pyrazolo[1,5-a]pyrimidin-3-yl)-1H-pyrazolo[4,3-c]pyridine-3-carboxamide]	5.01 to 50.1
COc1cc2c(cc1-n1nc(NC(=O)OCCSC3CCOC3=O)c3cnc(-c4cnn5cccnc45)cc31)CCCN2 (stereo not shown) [Example 86, 2-((2-oxotetrahydrofuran-3-yl)thio)ethyl (1-(7-methoxy-1,2,3,4-tetrahydroquinolin-6-yl)-6-(pyrazolo[1,5-a]pyrimidin-3-yl)-1H-pyrazolo[4,3-c]pyridin-3-yl)carbamate]	5.01 to 50.1

From patent US20260085077A1, “HETEROCYCLIC DERIVATIVES AS JANUS KINASE INHIBITORS” (CHIESI FARMACEUTICI S.P.A., priority 2022, published 2026)
